Experimental data taken from ChEMBL document CHEMBL5728270, “Immunomodulator compounds” (2021).

Experiment: Enzyme-Linked Immunosorbent Assay ELISA: 96 Well plates were coated with […] of human PD-L1 (obtained from R&D) in PBS overnight at 4° C. The wells were then blocked with 2% BSA in PBS (W/V) with 0.05% TWEEN-20 for 1 hour at 37° C. The plates were washed 3 times with PBS/0.05% TWEEN-20 and the compounds were serial diluted (1:5) in dilution medium and added to the ELISA plates. Human PD-1 and biotin 0.3 μg/mL (ACRO Biosystems) were added and incubated for 1 hour at 37° C. then washed 3 times with PBS/0.05% TWEEN-20. A second block was performed with 2% BSA in PBS (W/V)/0.05% TWEEN-20 for 10 min at 37° C. and was washed 3 times with PBS/0.05% TWEEN-20. Streptavidin-HRP was added for 1 hour at 37° C. then washed 3 times with PBS/0.05% TWEEN-20. TMB substrate was added and reacted for 20 min at 37° C. A stop solution (2 N aqueous H2SO4) was added. The absorbance was read at 450 nm using a micro-plate spectrophotometer.

SMILES | IC50 [nM]
C[C@@](CO)(NCc1cc(Cl)c(O[C@H]2CCc3c(-c4cccc(OCCCN5CCC(O)CC5)c4Cl)cccc32)cc1OCc1cncc(C#N)c1)C(=O)O | < 5
Cc1c(OCCCN2CCC(O)CC2)cccc1-c1cccc2c1CC[C@@H]2Oc1cc(OCc2cc(C#N)cc(C#N)c2)c(CN[C@@](C)(CO)C(=O)O)cc1Cl | < 5
Cc1c(OCCCN2CCC(O)CC2)cccc1-c1cccc2c1CC[C@@H]2Oc1cc(OCc2cncc(C#N)c2)c(CN[C@H](C(=O)O)[C@@H](C)O)cc1Cl | < 5
N#Cc1cncc(COc2cc(O[C@H]3CCc4c(-c5cccc(OCCCN6CCC(F)CC6)c5Cl)cccc43)c(Cl)cc2CN[C@H]2CCOC[C@@H]2O)c1 | < 5
